The values that follow come from patent publication US20150272934A1, “USE OF CSE INHIBITORS FOR THE TREATMENT OF CUTANEOUS INJURIES OR CONDITIONS AND SLEEP-RELATED BREATHING DISORDERS” (SOVA PHARMACEUTICALS, INC., priority 2012, published 2015).

The test system of data set [1] is hypoxic ventilatory response. Briefly: Dose response to dl-propargylglycine (PAG) in the rat hypoxic ventilatory response (HVR) assay. It is filed as in vivo, Sprague Dawley rats. The conditions noted are these: for Increase in minute ventilation (VE) from normoxia to hypoxia: FiO2 21% to 10%. As to the method: Male Sprague Dawley rats weighing 343±17 g (Mean±SD); weight range 316-381 g, were obtained from Harlan Laboratories and maintained on a 12 hour light:dark cycle (6 am lights on) with food and water ad libitum.
DSI: Rat unrestrained whole body plethysmography chamber (˜8″ diameter plexiglass), ACQ 7700 Acquisition Interface, Validyne DP45 low range differential pressure transducers, Ponemah software.
dl-Propargyl Glycine (PAG) was obtained from Sigma (Cat #P7888; Lot#BCBD1765V) and solubilized in 0.9% NaCl. Drugs were prepared fresh on the day of use.
Test compounds were administered via the intraperitoneal route at a dose volume of 3 mUkg.
Animals were pre-habituated to the test environment on 3 separate 1-hour periods prior to the test day. Following administration of test compounds animals were placed inside the whole body plethysmography chamber. The animals were allowed to acclimate to the environment for 60 minutes while breathing a 21% O2 balance N2 gas mix. After acclimation, the following gas mix protocol was followed:
(§1) Cycles were designated to be the periods of both normoxia and hypoxia. Each experiment consisted of 3 cycles (or repeated sets) of the HVR to a normoxic-hypoxic shift. The cycles were 30 minutes in duration to allow for serial sampling from baseline and all 4 WBP test chambers. Each sampling period was of 4 minutes duration and was in a varying order but was always preceded by a 4 minute baseline. The sampling periods were calculated to allow for equilibration of the gas mixture in the WBP chamber. Switching of the multiplexer (MUX) line sampler system was achieved through use of a user defined program. The gas mixtures were likewise switched automatically using a user defined custom mix program and the Sable Systems/Alicat Multi Flow Controller utility.
Analysis of data was performed in GraphPad Prism (v5) using embedded 1-way Analysis of Variance (ANOVA) followed by Dunnett's or Tukey's MCT post hoc testing where appropriate. Dual data sets were analyzed using the Student's t-test. Bartlett's Equal Variance tests were performed on all data sets, however failure of equal variance was not considered to impinge the validity of the test.

The subject of data set [2] is deep partial thickness cutaneous burn injury, zone of stasis. Kind of data set: Comb burn model for cutaneous burn. It is filed as in vivo, Sprague-Dawley rats. The note with it: for Viability of zones of stasis/interspaces on gross examination (burn progression): L-propargylglycine 100 mg/kg IP Day 0, Compound 1 20 mg/kg PO once daily, 6-day time course, versus control animals; for Blinded photo grading of treated interspaces versus control interspaces: within 48-72 hours, less injured versus worse/the same scale.

The subject of data set [3] is hypoxic ventilatory response. Briefly: Rat hypoxic ventilatory response (HVR) in sham and carotid sinus nerve (CSN) transection animals. Type of data set: in vivo, Sprague Dawley rats. The note with it: 100 mg/kg L-PAG. As to the method:
Male Sprague Dawley rats from Harlan Laboratories weighing 350±31 g (Mean±SD); were maintained on a 12 hour light:dark cycle (6 am lights on) with food and water ad libitum.
L-Propargyl Glycine (L-PAG) was solubilized in saline at 33.3 mg/ml.
Carotid sinus nerve (CSN) transaction—Under appropriate anesthesia the rat's neck is shaved and prepped for surgery with betadine solution. An incision is made in the throat area extending about 2 cm. The underlying musculature is incised to expose the carotid bifurcation on both sides. A silk suture is looped around the proximal external carotid and retracted laterally for control. […] The carotid sinus nerve is transected where it originates on the exposed part of the glossopharyngeal and ascends to the carotid bifurcation.
Animals were pre-habituated to the test environment on 2 separate 45 minute periods prior to the test day. Following administration of test compounds animals were placed inside the whole body plethysmography chamber. The animals were allowed to acclimate to the environment for 60 minutes while breathing a 21% O2 balance N2 gas mix. After acclimation, the following gas mix protocol was followed:
as §1, with “of 2” for “of 3”
Analysis of data was performed in GraphPad Prism (v5) using embedded 1-way Analysis of Variance (ANOVA) followed by Dunnett's or Tukey's MCT post hoc testing where appropriate. Bartlett's Equal Variance tests were performed on all data sets, however failure of equal variance was not considered to impinge the validity of the test.

A short description of data set [4]: Half-life of L-propargylglycine (statement in dosing rationale).
In another data set the test system is obstructive sleep apnea. The note with it: twelve patients; cited from earlier work.

`C#CCC(N)C(=O)O` (racemic) [PAG, dl-Propargylglycine]: the “Increase in minute ventilation (VE) from normoxia to hypoxia” value in data set [1] (PAG 1 or 3 mg/kg IP) is “not”; in data set [1] (PAG 10, 30 or 100 mg/kg IP), “blunted”. Moreover, the VH2O result in data set [1] (PAG 10, 30 and 100 mg/kg, both normoxic and hypoxic conditions, p<0.05) was “significantly impacted”. Besides, the “VE at 10% FiO2” value in data set [1] (PAG 10, 30 and 100 mg/kg, compared to saline, p<0.05) was “significantly reduced”. For the same compound, the “VE at an FiO2 of 21%” value in data set [1] (PAG 10 and 100 mg/kg, compared to saline, p<0.05) is on record as “reduced significantly”. Further, the “Slope of the hypoxic ventilatory response (ΔVE, HVR)” value in data set [1] (PAG 30 and 100 mg/kg IP, p<0.05 versus vehicle) was “significantly reduced”. Moreover, the “Slope of the hypoxic ventilatory response (ΔVE)” value in data set [1] (PAG below a dose of 10 mg/kg) is “no effect”. Moreover, the VO2 entry in data set [1] (normoxic conditions, PAG 10 and 100 mg/kg, p<0.05) is “significantly decreased”. In addition, the VCO2 entry in data set [1] (rat, in vivo) is “no effect”.

Regarding `CN(N)c1nnn[nH]1` [Compound 1, 5-(1-methylhydrazinyl)-1H-tetrazole], in data set [2], the “Viability of zones of stasis/interspaces on gross examination (burn progression)” value was “maintain viability” and the “Blinded photo grading of treated interspaces versus control interspaces” value is “less injured than controls”.

In the case of `C#CC[C@H](N)C(=O)O` [L-propargylglycine], in data set [2], the “Viability of zones of stasis/interspaces on gross examination (burn progression)” value is recorded as “maintain viability” and the “Blinded photo grading of treated interspaces versus control interspaces” value is recorded as “less injured than controls”. Further, in data set [2] (over time course, control animals showed a decrease in perfusion), the “Perfusion in zones of stasis/interspace areas (LDI analysis)” value is reported as “perfusion is maintained”. For the same compound, in data set [3] (CSN transection animals), the “HVR (change in slope of minute ventilation)” value is “did not change” and the “Increase of minute ventilation (VE) when FiO2 changed from 21% to 10%” value is listed as 22%. The “Increase of minute ventilation (VE) when FiO2 changed from 21% to 10%” value in data set [3] (sham animals) was 51%. For the same compound, in data set [3] (sham animals, p<0.05), the “HVR (change in slope of minute ventilation)” value was “significantly reduced”. Also, in data set [4], the half-life entry is listed as “very long”.

For the compound `CN1CCN2c3ncccc3Cc3ccccc3C2C1` (stereo not drawn) [mirtazapine], in the data set on obstructive sleep apnea, the “decrease in occurrence of apnea episodes” value is on record as 50% and the “decrease in sleep disruptions” value is on record as 28%.
